This is an account of results in PMC7618036, “An oral heme oxygenase inhibitor targets immunosuppressive perivascular macrophages in preclinical models of cancer” (Science translational medicine, 2025).

One data set has as its system MMTV-PyMT tumors. In words: Gemcitabine tumor growth in Lyve1^Cre and Lyve1^WT MMTV-PyMT Hmox1^fl/fl mice. The class given is in vivo, mouse. The settings on record: gemcitabine 6.6mg/kg/7days. The text has this:
Figure 1 LYVE-1^+ PvTAMs modulate the immune landscape and resistance to chemotherapy in cancer through their expression of HO-1. (A) Representative image of a frozen section of MMTV-PyMT tumor stained with DAPI (nuclei; blue) and antibodies against F4/80 (magenta), HO-1 (red), CD31 (green). Colocalizing pixels for F4/80 and HO-1 are shown in yellow. Scale bar is 50 µm. (B-E) Schematic depicting the transgene of the HO-1 reporter mice (HO-1^Luc/eGFP) (top panel) and representative dot plot of FACs-gated live (7AAD^-) cells from enzyme-dispersed MMTV-PyMT HO-1^Luc/eGFP tumors separated based on their respective expression of HO-1 (eGFP) and CD45 (bottom panel) (B). HO-1/eGFP normalized median fluorescent intensity (MFI) of the indicated tumoral cell populations with background MFI subtracted from WT mice (n=5) (C). Representative contour plot of FACs-gated live (7AAD^-), CD45^+F4/80^+ TAMs separated based on their expression of CD206 and MHCII (left) and histograms showing the HO-1/eGFP expression of the subsets alongside the background fluorescence in WT mice (right) (D). Representative histograms of the TAM populations identified in (D) for their surface expression of LYVE-1 alongside their respective fluorescence minus one (FMO) staining (E). (F) Quantitation of the respective TAM populations identified in (D) across MMTV-PyMT tumors (n=10). […]

Details of data set [1]: method as in PMID 2714739. To be noted: cited from earlier work.

Consider `Nc1ccn([C@@H]2O[C@H](CO)[C@@H](O)C2(F)F)c(=O)n1` [gemcitabine], for which the results for the tumor growth entry in the data set on MMTV-PyMT tumors (Lyve1^Cre mice) and with MMTV-PyMT tumors (Lyve1^WT mice) were “long-term durable control of tumor growth” and “insensitive”, respectively.

In the case of “Sn (IV) mesoporphyrin IX dichloride [SnMP]”, in data set [1], the oral bioavailability entry is on record as “not orally bioavailable” and the serum half-life result was “short”.
